Tested on: mouse plasma stability, LC-MS/MS, 48 h
Experiment: Inhibitors of 12-hLO: Mouse Plasma Stability Profiling
Conditions: at 2 µM; active compounds read high
From the text: Assay Provider: Holman, T.R., University of California, Santa Cruz Grant #: MH08128301 Screening Center PI: Austin, C.P. Screening Center: NIH Chemical Genomics Center [NCGC] Human lipoxygenase 12hLO is a member of the closely related lipoxygenase family of enzymes which catalyze the site-specific oxidation of arachidonic acid to various hormone precursor molecules and as such is a candidate for drug development in a variety of disease areas, such as cancer and inflammation. After qHTS, hits were confirmed in follow-up assays, and leads were optimized through SAR. The resulting lead compound was further characterized through a battery ADME-Tox experiments, and this assay describes its stability in mouse plasma. The stability of the lead compound in […] is tested because this parameter has a significant impact on many ADME-concerned properties of drugs, such as uptake, distribution, transport, and eventually bioavailability.
2microM of compound is incubated in PBS buffer at pH 7; the reference compound is procaine. Compounds are incubated at 37 deg C for the pre-determined time periods and the when aliquots are removed. Samples are analyzed with LC-MS/MS.

percent remaining: 98.3%
SMILES: CC(=O)NC(c1cccs1)c1cc(Br)c2cccnc2c1O (stereo unspecified)

Reference: PubChem BioAssay AID504610 (National Center for Advancing Translational Sciences (NCATS), 2011)
